Several values for one entry are separate records, joined by “and”; a condition that tells them apart may be missing. Equal values may be shown once. Toxic doses and inconclusive results are not listed.
Test system: L1210 leukemia ip in BDF1 mice, survival T/C
Assay: NCI In Vivo Anticancer Drug Screen. Data for tumor model L1210 Leukemia (intraperitoneal) in B6D2F1 (BDF1) mice
Conditions: endpoint: mean survival time, higher = longer survival
Method in brief: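 Value reflects the ratio of survival in compound-treated mice to survival in vehicle-treated controls, with both groups carrying the same transplanted tumor.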

[1] = dose: 100.0 mg/kg/injection, schedule: Q04DX003 (ip), vehicle: other
[2] = dose: 200.0 mg/kg/injection, schedule: Q04DX003 (ip), vehicle: other
[3] = dose: 400.0 mg/kg/injection, schedule: Q04DX003 (ip), vehicle: other
[4] = dose: 100.0 mg/kg/injection, schedule: Q04DX003 (ip), vehicle: saline
[5] = dose: 200.0 mg/kg/injection, schedule: Q04DX003 (ip), vehicle: saline
[6] = dose: 400.0 mg/kg/injection, schedule: Q04DX003 (ip), vehicle: saline
[7] = dose: 100.0 mg/kg/injection, schedule: Q01DX001 (ip), vehicle: carboxymethylcellulose (CMC)
[8] = dose: 200.0 mg/kg/injection, schedule: Q01DX001 (ip), vehicle: carboxymethylcellulose (CMC)
[9] = dose: 400.0 mg/kg/injection, schedule: Q01DX001 (ip), vehicle: carboxymethylcellulose (CMC)
[10] = dose: 100.0 mg/kg/injection, schedule: Q04DX003 (ip), vehicle: saline sonified
[11] = dose: 200.0 mg/kg/injection, schedule: Q04DX003 (ip), vehicle: saline sonified
[12] = dose: 400.0 mg/kg/injection, schedule: Q04DX003 (ip), vehicle: saline sonified
[13] = dose: 100.0 mg/kg/injection, schedule: Q01DX009 (ip), vehicle: Klucel (hydroxypropylcellulose) (HPC)
[14] = dose: 200.0 mg/kg/injection, schedule: Q01DX009 (ip), vehicle: Klucel (hydroxypropylcellulose) (HPC)
[15] = dose: 100.0 mg/kg/injection, schedule: Q04DX003 (ip), vehicle: Klucel (hydroxypropylcellulose) (HPC)
[16] = dose: 200.0 mg/kg/injection, schedule: Q04DX003 (ip), vehicle: Klucel (hydroxypropylcellulose) (HPC)
[17] = dose: 400.0 mg/kg/injection, schedule: Q04DX003 (ip), vehicle: Klucel (hydroxypropylcellulose) (HPC)
[18] = dose: 50.0 mg/kg/injection, schedule: Q04DX002 (ip), vehicle: Klucel (hydroxypropylcellulose) (HPC)
[19] = dose: 100.0 mg/kg/injection, schedule: Q04DX002 (ip), vehicle: Klucel (hydroxypropylcellulose) (HPC)
[20] = dose: 100.0 mg/kg/injection, schedule: Q01DX009 (ip), vehicle: saline with Tween-80

O=COC(CCCc1ccccc1)c1ccc2c(c1)OCO2 (configuration not stated)
T/C [1]: 93 % of control | T/C [2]: 93 % of control | T/C [3]: 98 % of control

NC(=O)c1cccc[n+]1Cc1cc(=O)[nH]c(=O)[nH]1
T/C [4]: 93 % of control | T/C [5]: 101 % of control | T/C [6]: 89 % of control

c1cc2c3c(cccc3c1)-c1nc3ccccc3nc1-2
T/C (dose: 50.0 mg/kg/injection, schedule: Q01DX Z (ip), vehicle: methylcellulose (MC)): 100 % of control | T/C [7]: 94 % of control | T/C (dose: 100.0 mg/kg/injection, schedule: Q01DX Z (ip), vehicle: methylcellulose (MC)): 98 % of control | T/C (dose: 125.0 mg/kg/injection, schedule: Q01DX Z (ip), vehicle: methylcellulose (MC)): 102 % of control | T/C [8]: 100 % of control | T/C [9]: 88 % of control

O=C1OCCO1
T/C [10]: 95 % of control | T/C [11]: 101 % of control | T/C [12]: 101 % of control

CC(=O)OCC(=O)[C@@]1(O)CC[C@H]2[C@@H]3C[C@H](C)C4=CC(=O)C=C[C@]4(C)[C@@]3(F)[C@@H](O)C[C@@]21C
T/C (dose: 100.0 mg/kg/injection, schedule: Q01DX009 (ip), vehicle: saline): 103 % of control | T/C [4]: 94 % of control | T/C (dose: 200.0 mg/kg/injection, schedule: Q01DX009 (ip), vehicle: saline): 92 % of control | T/C [5]: 111 % of control | T/C (dose: 400.0 mg/kg/injection, schedule: Q01DX009 (ip), vehicle: saline): 108 % of control | T/C [6]: 103 % of control

CC1Cc2c(ccc3ccccc23)C1=O (configuration not stated)
T/C (dose: 100.0 mg/kg/injection, schedule: Q01DX001 (ip), vehicle: saline): 98 % of control | T/C [4]: 94 % of control | T/C (dose: 200.0 mg/kg/injection, schedule: Q01DX001 (ip), vehicle: saline): 97 % of control | T/C [5]: 94 % of control | T/C (dose: 400.0 mg/kg/injection, schedule: Q01DX001 (ip), vehicle: saline): 101 % of control | T/C [6]: 95 % of control

O=[N+]([O-])c1ccc(N/N=C2/C(=C/c3cccc4ccccc34)CCc3ccccc32)c([N+](=O)[O-])c1
T/C [13]: 91 % of control | T/C [14]: 89 % of control | T/C (dose: 400.0 mg/kg/injection, schedule: Q01DX009 (ip), vehicle: Klucel (hydroxypropylcellulose) (HPC)): 91 % of control

CCCCS/C=C\SCCCC
T/C (dose: 100.0 mg/kg/injection, schedule: Q04DX002 (sc), vehicle: olive oil, sesame oil, peanut oil): 107 % of control | T/C (dose: 200.0 mg/kg/injection, schedule: Q04DX002 (sc), vehicle: olive oil, sesame oil, peanut oil): 104 % of control | T/C (dose: 400.0 mg/kg/injection, schedule: Q04DX002 (sc), vehicle: olive oil, sesame oil, peanut oil): 104 % of control

CC1(CCl)OCCO1
T/C [13]: 91 % of control | T/C [15]: 100 % of control | T/C [14]: 96 % of control | T/C [16]: 101 % of control | T/C [17]: 98 % of control

CCN=C=NCCCN(C)C
T/C (dose: 20.0 mg/kg/injection, schedule: Q01DX009 (ip), vehicle: saline): 107 % of control | T/C (dose: 20.0 mg/kg/injection, schedule: Q04DX003 (ip), vehicle: saline): 100 % of control | T/C (dose: 40.0 mg/kg/injection, schedule: Q01DX009 (ip), vehicle: saline): 114 % of control | T/C (dose: 40.0 mg/kg/injection, schedule: Q04DX003 (ip), vehicle: saline): 109 % of control | T/C (dose: 80.0 mg/kg/injection, schedule: Q04DX003 (ip), vehicle: saline): 112 % of control

CC1(NC(=O)N(CCCl)N=O)CCCC1
T/C (dose: 16.0 mg/kg/injection, schedule: Q01DX001 (ip), vehicle: carboxymethylcellulose (CMC)): 95 % of control | T/C (dose: 31.0 mg/kg/injection, schedule: Q01DX001 (ip), vehicle: carboxymethylcellulose (CMC)): 113 % of control | T/C (dose: 62.0 mg/kg/injection, schedule: Q01DX001 (ip), vehicle: carboxymethylcellulose (CMC)): 157 % of control | T/C (dose: 125.0 mg/kg/injection, schedule: Q01DX001 (ip), vehicle: carboxymethylcellulose (CMC)): 282 % of control | T/C (dose: 250.0 mg/kg/injection, schedule: Q01DX001 (ip), vehicle: carboxymethylcellulose (CMC)): 329 % of control

O=Cc1cc(=O)[nH]c(S)[n+]1-c1ccccc1
T/C [18]: 96 % of control | T/C [19]: 96 % of control | T/C (dose: 200.0 mg/kg/injection, schedule: Q04DX002 (ip), vehicle: Klucel (hydroxypropylcellulose) (HPC)): 101 % of control

CC1(C(Cl)(Cl)Cl)C=CC(O)C=C1 (configuration not stated)
T/C (dose: 25.0 mg/kg/injection, schedule: Q01DX009 (ip), vehicle: Klucel (hydroxypropylcellulose) (HPC)): 90 % of control | T/C (dose: 25.0 mg/kg/injection, schedule: Q04DX002 (ip), vehicle: Klucel (hydroxypropylcellulose) (HPC)): 87 % of control | T/C (dose: 50.0 mg/kg/injection, schedule: Q01DX009 (ip), vehicle: Klucel (hydroxypropylcellulose) (HPC)): 93 % of control | T/C [18]: 93 % of control | T/C [13]: 97 % of control and 90 % of control | T/C [19]: 97 % of control and 89 % of control | T/C (dose: 150.0 mg/kg/injection, schedule: Q01DX009 (ip), vehicle: Klucel (hydroxypropylcellulose) (HPC)): 93 % of control

Clc1ccc2ccc(Cl)cc2c1
T/C [7]: 103 % of control | T/C [8]: 95 % of control | T/C [9]: 94 % of control

O=C(Nc1cccc(F)c1)SCc1ccccc1
T/C (dose: 100.0 mg/kg/injection, schedule: Q01DX009 (ip), vehicle: gum acacia): 90 % of control | T/C (dose: 200.0 mg/kg/injection, schedule: Q01DX009 (ip), vehicle: gum acacia): 90 % of control | T/C (dose: 400.0 mg/kg/injection, schedule: Q01DX009 (ip), vehicle: gum acacia): 98 % of control

CCC(COC(C)=O)(COC(C)=O)[N+](=O)[O-]
T/C [15]: 103 % of control | T/C [16]: 98 % of control | T/C [17]: 101 % of control

O=C(COc1ccc(Cl)cc1Cl)Nc1cccc2c1C(=O)c1ccccc1C2=O
T/C (dose: 100.0 mg/kg/injection, schedule: Q04DX002 (ip), vehicle: saline + alcohol): 96 % of control | T/C (dose: 200.0 mg/kg/injection, schedule: Q04DX002 (ip), vehicle: saline + alcohol): 100 % of control | T/C (dose: 400.0 mg/kg/injection, schedule: Q04DX002 (ip), vehicle: saline + alcohol): 96 % of control

O=C(O)CCC(=O)Nc1cccc(Oc2ccc([N+](=O)[O-])cc2[N+](=O)[O-])c1
T/C [4]: 106 % of control | T/C [5]: 98 % of control | T/C [6]: 97 % of control

CCCCC(CC)CSCC(CC)CCCC (configuration not stated)
T/C [10]: 97 % of control | T/C [11]: 93 % of control | T/C [12]: 97 % of control

CCOC(=O)c1c[nH]c(=O)c([N+](=O)[O-])c1O
T/C [20]: 98 % of control | T/C (dose: 100.0 mg/kg/injection, schedule: Q04DX003 (ip), vehicle: saline with Tween-80): 96 % of control | T/C (dose: 200.0 mg/kg/injection, schedule: Q01DX009 (ip), vehicle: saline with Tween-80): 109 % of control | T/C (dose: 200.0 mg/kg/injection, schedule: Q04DX003 (ip), vehicle: saline with Tween-80): 98 % of control | T/C (dose: 400.0 mg/kg/injection, schedule: Q01DX009 (ip), vehicle: saline with Tween-80): 92 % of control | T/C (dose: 400.0 mg/kg/injection, schedule: Q04DX003 (ip), vehicle: saline with Tween-80): 90 % of control

O=C(CC(O)(C(F)(F)F)C(F)(F)F)c1ccc(Br)cc1
T/C [1]: 98 % of control | T/C [2]: 106 % of control | T/C [3]: 93 % of control

COc1cccc(C(C)(C)COS(=O)(=O)c2ccc(C)cc2)c1
T/C (dose: 50.0 mg/kg/injection, schedule: Q01DX009 (ip), vehicle: saline with Tween-80): 90 % of control | T/C [20]: 90 % of control

N=c1ccn(C(=O)C2=Cc3ccccc3OC2)cc1
T/C (dose: 5.0 mg/kg/injection, schedule: Q01DX009 (ip), vehicle: saline with Tween-80): 101 % of control | T/C (dose: 10.0 mg/kg/injection, schedule: Q01DX009 (ip), vehicle: saline with Tween-80): 90 % of control | T/C (dose: 10.0 mg/kg/injection, schedule: Q04DX003 (ip), vehicle: saline with Tween-80): 100 % of control | T/C (dose: 20.0 mg/kg/injection, schedule: Q01DX009 (ip), vehicle: saline with Tween-80): 96 % of control | T/C (dose: 20.0 mg/kg/injection, schedule: Q04DX003 (ip), vehicle: saline with Tween-80): 98 % of control

Source: PubChem BioAssay AID248 (DTP/NCI, 2004)
